Laboratory results taken from patent US11236049B2, “Amorphous and crystalline forms of IDO inhibitors” (BRISTOL-MYERS SQUIBB COMPANY, priority 2017, dated 2022).
“And” between values parts separate entries of the source, which are not always exact repeats. Equal entries are not always repeated. Where two headings read alike, the source gives them in different places.

Columns and labels:
[1] = for AUC (Mean) / Dissolution Rate (Mean): 150 mg in 250 mL (0.60 mg/mL API equivalent), 37° C.
Experimental: Microdissolution Microdissolution experiments were conducted in a pIon μDiss Profiler microdissolution instrument (pION μDiss Profiler) with a fiber optic UV monitoring system, as follows: Probes: 2.5 mm probes (5 mm path length) Volume: 15 ml Stirring: 150 rpm Temperature: 37° C. […] The target doses were 150 mg in 250 mL (0.60 mg/mL API equivalent) in FaSSIF (pH 6.5) and FeSSIF (pH 5).

[2] = in vivo
[3] = Jet milling: milled physical properties; type: physicochemical
From the text: Particle size reduction can be achieved by jet milling using a 0202 Jet o Mizer loop Mill. Particle collisions are enabled by nitrogen gas supplied at high pressure to the milling chamber via two grinding nozzles. The feed rate of the drug substance into the mill is controlled by a feeder that supplies drug substance into the feed hopper of the mill at a visually consistent feed rate. High pressure nitrogen gas is supplied through the venturi nozzle to inject drug substance from the mill feed hopper into the milling chamber, and this is referred to as the venture pressure. The grinding and venturi pressures are adjusted to the desired level before the start of milling, and both are kept at the same level unless product blow back from the feed hopper is observed. The venturi pressure is typically adjusted to 10 PSI above the grinding pressure. The micronized drug substance exits via the mill chamber outlet to be collected in the product collection unit consisting of a combined cyclone and porous fabric filter media assembly. Milling parameters may be adjusted based on sample analysis. Particle sizes that range between 12.7 μm and 24.0 μm (D90 by laser-light scattering) are achieved from the milling operation.

[4] = type: physicochemical
Experimental: Stability Testing Chromatographic Conditions: VHPLC Parameters VHPLC System: Waters AcQuity BSM or […] system equipped with a Waters UV/Vis Detector Column: Ascentis Express C18, 150 mm×2.1 mm i.d., 2.7 um particle size. Detector Wavelength: 218 nm VHPLC detector time constrat: normal VHPLC sampling rate: 20 Hz […] Flow Rate: 0.5 mL/min Injection volume 1 uL Column temperature: 30° C. Run time: 14 minutes Sample temperature: 5° C. Mobile Phase A: water:acetonitrile:TFA (95:5:0.05) Mobile Phase B: water: acetonitrile:TFA (5:95:0.05) [table] […] The study consisted of one batch of drug substance packaged in double LDPE bags, placed in a 0.6 L HDPE paid with a lid and gasket.

[5] = pH solubility of Compound 1 MSA Salt Form 1; type: physicochemical
Experimental: Measurements were taken using an Orion ATI Model 370 pH meter. […] To each vial was added 5 mL of various aqueous acidic and basic solutions. Each vial was stoppered and vortexed and sonicated to mix well. The pH of each sample was recorded. […] After 24 hours of stirring, the pH of each sample (as a suspension) was recorded. Suspensions were filtered with 0.2 micron Acrodisc syringe filters. The clear filtrates were collected and vortexed to mix well pH of each filtrated was recorded. pH of suspension and filtrate were nearly identical. A 1.0 mL aliquot of each of the filtrates 25-fold using 50% acetonitrile/50% Milli-Q water, q.w. each flask to 25 mL. […] Samples were assayed using the following HPLC method: Column: […] Mobile phase Solvent A: Water w/0.05% TFA • Solvent B: Acetonitrile w/0.05% TFA […] Column temperature: Ambient RT Detector Wavelength: 250 nm […] Working Concentration: […] Added 20 mL of 100% acetonitrile to the vial. Stoppered, vortexed, and sonicated the vial. […] Transferred the suspension to a 250 mL glass volumetric flask, and washed out the glass vial with 4×20 mL 50% acetonitrile/50% Milli-Q water, transferring each wash into the volumetric flask. All solids dissolved. Q.S. the volumetric flask to 250 mL final volume using 50% acetonitrile/50% Milli Q water, shake to give standard solution at 101.5 mcg/mL.

[6] = No. 1 Long Term, 5° C., 1 month
[7] = No. 1 Long Term, 5° C., 3 months
[8] = No. 1 Long Term, 5° C., 6 months
[9] = No. 1 Long Term, 5° C., 12 months
[10] = No. 2 Long Term, 25° C./60% RH, 1 month
[11] = No. 2 Long Term, 25° C./60% RH, 3 months
[12] = No. 2 Long Term, 25° C./60% RH, 6 months
[13] = No. 2 Long Term, 25° C./60% RH, 12 months
[14] = No. 3 Accelerated, 40° C./75% RH, 1 month
[15] = No. 3 Accelerated, 40° C./75% RH, 2 weeks
[16] = No. 3 Accelerated, 40° C./75% RH, 3 months
[17] = No. 3 Accelerated, 40° C./75% RH, 6 months
[18] = No. 5 Stress, 40° C./75% RH exposed, 1 month
[19] = No. 5 Stress, 40° C./75% RH exposed, 2 weeks
[20] = No. 5 Stress, 40° C./75% RH exposed, 3 months
[21] = No. 5 Stress, 40° C./75% RH exposed, 6 months
[22] = No. 7 Stress, 25° C./HIL/UVA Exposed, 2 weeks
[23] = No. 7 Stress, 25° C./HIL/UVA Exposed, 4 days
[24] = No. 7 Stress, 25° C./HIL/UVA protected, 2 weeks
[25] = No. 7 Stress, 25° C./HIL/UVA protected, 4 days

In the case of `CS(=O)(=O)O.C[C@@H](C(=O)Nc1ccc(Cl)cc1)[C@H]1CC[C@@H](c2ccnc3ccc(F)cc32)CC1` [Compound 1 MSA Salt Form 1, (R)-N-(4-chlorophenyl)-2-((1S,4S)-4-(6-fluoroquinolin-4-yl)cyclohexyl)propanamide methanesulfonate], the “rate and extent of dissolution compared to an amorphous form or HCl salts (amorphous and crystalline)” value ([1]; Example 14, FIG. 7, both FeSSiF and FaSSiF, simulated 150 mg human dose) is reported as “faster rate and extent of dissolution”, the “rate and extent of dissolution compared to Compound 1 free base (amorphous)” value ([1]; Example 14, FIG. 8, FaSSIF and FeSSIF at 0.2 mg/mL) is reported as “faster rate and extent of dissolution” and the rate of dissolution ([1]; Example 16, FeSSIF) is reported as 38 µg/mL/min. For the same compound, the “AUC (Mean)” value ([1]; FaSSIF (pH 6.5)) was 14988.073 µg·min/mL, the “Dissolution Rate (Mean)” value ([1]; FaSSIF (pH 6.5)) was 2.460 µg/mL/min and the “AUC (Mean)” value ([1]; FeSSIF (pH 5)) was 46410.396 µg·min/mL. The “Dissolution Rate (Mean)” value ([1]; FeSSIF (pH 5)) was 38.850 µg/mL/min, the “Peak Solubility (Mean)” value ([1]; pH 5) was 271.564 µg/mL and the “Peak Solubility (Mean)” value ([1]; pH 6.5) was 100.877 µg/mL. The oral bioavailability [2] was “increased oral bioavailability”, the Bulk density ([3]; for sample with D90 of 22.3 μm) was 0.193 g/mL and the D50 ([3]; range from 0202 Jet Mill) was 6.2-9.8 μm. For the same compound, the Surface area ([3]; range from 0202 Jet Mill) was 2.08-3.63 m^2/g, the D90 ([3]; range from 0202 Jet Mill, laser-light scattering) was 12.7-24.0 μm and the photostability study conclusion [4] was “does not need to be protected from light”. The “Assay “as is”” value [4, 6] was 81.9%, the “Assay “corrected”” value [4, 6] was 100.5% and the “Assay “as is”” value [4, 7] was 82.4%. For the same compound, the “Assay “corrected”” value [4, 7] was 101.1%, the “Assay “as is”” value [4, 8] was 81.2% and the “Assay “corrected”” value [4, 8] was 99.6%. For the same compound, the “Assay “as is”” value [4, 9] was 81.7%, the “Assay “corrected”” value [4, 9] was 100.5% and the “Assay “as is”” value [4, 10] was 82.1%. For the same compound, the “Assay “corrected”” value [4, 10] was 100.8%, the “Assay “as is”” value [4, 11] was 81.7% and the “Assay “corrected”” value [4, 11] was 100.4%. The “Assay “as is”” value [4, 12] was 81.2%, the “Assay “corrected”” value [4, 12] was 99.7% and the “Assay “as is”” value [4, 13] was 81.1%. For the same compound, the “Assay “corrected”” value [4, 13] was 99.8%, the “Assay “as is”” value [4, 14] was 82.3% and the “Assay “corrected”” value [4, 14] was 101.0%. For the same compound, the “Assay “as is”” value [4, 15] was 80.7%, the “Assay “corrected”” value [4, 15] was 99.1% and the “Assay “as is”” value [4, 16] was 81.5%. For the same compound, the “Assay “corrected”” value [4, 16] was 100.1%, the “Assay “as is”” value [4, 17] was 81.8% and the “Assay “corrected”” value [4, 17] was 100.4%. For the same compound, the “Assay “as is”” value ([4]; No. 4 Stress, −20° C., 1 month) was 82.4%, the “Assay “corrected”” value ([4]; No. 4 Stress, −20° C., 1 month) was 101.1% and the “Assay “as is”” value [4, 18] was 81.6%. For the same compound, the “Assay “corrected”” value [4, 18] was 100.3%, the “Assay “as is”” value [4, 19] was 80.9% and the “Assay “corrected”” value [4, 19] was 99.3%. For the same compound, the “Assay “as is”” value [4, 20] was 81.4%, the “Assay “corrected”” value [4, 20] was 99.9% and the “Assay “as is”” value [4, 21] was 80.3%. For the same compound, the “Assay “corrected”” value [4, 21] was 98.6%, the “Assay “as is”” value ([4]; No. 6 Stress, 50° C., 1 month) was 82.0% and the “Assay “corrected”” value ([4]; No. 6 Stress, 50° C., 1 month) was 100.7%. The “Assay “as is”” value ([4]; No. 6 Stress, 50° C., 2 weeks) was 80.8%, the “Assay “corrected”” value ([4]; No. 6 Stress, 50° C., 2 weeks) was 99.2% and the “Assay “as is”” value ([4]; No. 6 Stress, 50° C., 3 months) was 82.2%. For the same compound, the “Assay “corrected”” value ([4]; No. 6 Stress, 50° C., 3 months) was 100.9%, the “Assay “as is”” value [4, 22] was 78.7% and the “Assay “corrected”” value [4, 22] was 96.8%. The “Assay “as is”” value [4, 23] was 80.8%, the “Assay “corrected”” value [4, 23] was 99.2% and the “Assay “as is”” value [4, 24] was 80.4%. For the same compound, the “Assay “corrected”” value [4, 24] was 98.7%, the “Assay “as is”” value [4, 25] was 81.1% and the “Assay “corrected”” value [4, 25] was 99.5%. The “storage time remained stable” value ([4]; accelerated condition of 40° C./75% RH) was no less than 6 months, the “changes in XRD pattern” value ([4]; after any of the study numbers) was “No changes” and the “change in total impurities on light exposure” value ([4]; approximately 3.5 times the minimum ICH exposure) was “slight increase”. The “Color and appearance (white or off-white powder or powder with lumps)” value ([4]; during the studies) was “maintained”, the “4-chloroaniline (impurity)” value ([4]; initial) was 0.09% and the “enantiomeric impurity of Compound 1” value ([4]; initial) was less than 0.05%. The total impurities ([4]; initial) was 0.57%, the water content ([4]; initial) was less than 0.1 % w/w and the “Assay “as is”” value ([4]; initial (average of 2 results)) was 79.0% and 79.0^1%. For the same compound, the “Assay “corrected”” value ([4]; initial (average of 2 results)) was 97.0% and 97.0^1%, the “storage time remained stable” value ([4]; long-term conditions of 5° C. and 25° C./60% relative humidity (RH)) was “at least 12 months” and the “changes on light exposure” value ([4]; minimum ICH Q1B exposure) was “Essentially no changes”. The “storage time remained stable” value ([4]; stress condition of 50° C.) was no less than 3 months, the total impurities ([4]; study number 3) was 0.48% and the total impurities ([4]; study number 6) was 0.50%. For the same compound, the “changes in assay “as is” or “corrected” from initial” value ([4]; study numbers 1, 2, 3, and 5) was “Essentially no changes”, the “changes in enantiomeric impurity” value ([4]; study numbers 1 and 2) was “No changes” and the “changes in water content” value ([4]; study numbers 1 and 2) was “Essentially no changes”. The “4-chloroaniline (impurity)” value ([4]; study numbers 3 and 6 (both conditions)) was less than 0.05%, the “changes in total impurities from initial” value ([4]; study numbers 4, 1, 2, and 3) was “Essentially no changes” and the Solubility ([5]; pH 0.49) was 24 µg/mL. The Solubility ([5]; pH 1.01) was 73 µg/mL, the Solubility ([5]; pH 2.46) was 147 µg/mL and the Solubility ([5]; pH 2.7) was 85 µg/mL. For the same compound, the Solubility ([5]; pH 3.14) was 18 µg/mL, the Solubility ([5]; pH 3.61) was 3 µg/mL and the Solubility ([5]; pH 4.53) was 1 µg/mL. The Solubility ([5]; pH 6.82) was 1 µg/mL, the Solubility ([5]; pH 7) was 96 µg/mL and the Solubility ([5]; pH 9.68) was 2 µg/mL.
